Our source for the Ki and Km values is ChEMBL document CHEMBL2074089, “Methotrexate is excreted into the bile by canalicular multispecific organic anion transporter in rats” (Cancer Res, 1997).

Assay type in all cases: functional, cell membranes, Sprague-Dawley, Bile canalicular membrane vesicle
Data set [1] concerns the target T1, ATP-binding cassette sub-family C member 2 (Rattus norvegicus, UniProt Q63120). The data set is described as follows: TP_TRANSPORTER: inhibition of L-MTX uptake in bile canalicular membrane vesicles from SD rat.
In data set [2] the target is T1, ATP-binding cassette sub-family C member 2. The data set is described as follows: TP_TRANSPORTER: inhibition of DNP-SG uptake in bile canalicular membrane vesicles from SD rat.
Substrate in data set [3]: CN(Cc1cnc2nc(N)nc(N)c2n1)c1ccc(C(=O)N[C@@H](CCC(=O)O)C(=O)O)cc1
The data set is described as follows: (§1) TP_TRANSPORTER: uptake in bile canalicular membrane vesicles from SD rat.

Substrate in data set [4]: N[C@@H](CCC(=O)N[C@H](CSc1ccc([N+](=O)[O-])cc1[N+](=O)[O-])C(=O)NCC(=O)O)C(=O)O
The description is as §1.

`CN(Cc1cnc2nc(N)nc(N)c2n1)c1ccc(C(=O)N[C@@H](CCC(=O)O)C(=O)O)cc1` [METHOTREXATE]: the Ki in data set [1] came to 326 µM; in data set [2], 236 µM.

The molecule `CN(Cc1cnc2nc(N)nc(N)c2n1)c1ccc(C(=O)N[C@H](CCC(=O)O)C(=O)O)cc1` registered a Ki in data set [1] of 92.8 µM.

B1: ATP-binding cassette sub-family C member 2 (Rattus norvegicus) (protein)
chain: MDKFCNSTFWDLSLLESPEADLPLCFEQTVLVWIPLGFLWLLAPWQLYSVYRSRTKRSSITKFYLAKQVFVVFLLILAAIDLSLALTEDTGQATVPPVRYTNPILYLCTWLLVLAVQHSRQWCVRKNSWFLSLFWILSVLCGVFQFQTLIRALLKDSKSNMAYSYLFFVSYGFQIVLLILTAFSGPSDSTQTPSVTASFLSSITFSWYDRTVLKGYKHPLTLEDVWDIDEGFKTRSVTSKFEAAMTKDLQKARQAFQRRLQKSQRKPEATLHGLNKKQSQSQDVLVLEEAKKKSEKTTKDYPKSWLIKSLFKTFHVVILKSFILKLIHDLLVFLNPQLLKLLIGFVKSSNSYVWFGYICAILMFAVTLIQSFCLQSYFQHCFVLGMCVRTTVMSSIYKKALTLSNLARKQYTIGETVNLMSVDSQKLMDATNYMQLVWSSVIQITLSIFFLWRELGPSILAGVGVMVLLIPVNGVLATKIRNIQVQNMKNKDKRLKIMNEILSGIKILKYFAWEPSFQEQVQGIRKKELKNLLRFGQLQSLLIFILQITPILVSVVTFSVYVLVDSANVLNAEKAFTSITLFNILRFPLSMLPMVTSSILQASVSVDRLERYLGGDDLDTSAIRRVSNFDKAVKFSEASFTWDPDLEATIQDVNLDIKPGQLVAVVGTVGSGKSSLVSAMLGEMENVHGHITIQGSTAYVPQQSWIQNGTIKDNILFGSEYNEKKYQQVLKACALLPDLEILPGGDMAEIGEKGINLSGGQKQRVSLARAAYQDADIYILDDPLSAVDAHVGKHIFNKVVGPNGLLAGKTRIFVTHGIHFLPQVDEIVVLGKGTILEKGSYRDLLDKKGVFARNWKTFMKHSGPEGEATVNNDSEAEDDDDGLIPTMEEIPEDAASLAMRRENSLRRTLSRSSRSSSRRGKSLKNSLKIKNVNVLKEKEKEVEGQKLIKKEFVETGKVKFSIYLKYLQAVGWWSILFIILFYGLNNVAFIGSNLWLSAWTSDSDNLNGTNNSSSHRDMRIGVFGALGLAQGICLLISTLWSIYACRNASKALHGQLLTNILRAPMRFFDTTPTGRIVNRFSGDISTVDDLLPQTLRSWMMCFFGIAGTLVMICMATPVFAIIIIPLSILYISVQVFYVATSRQLRRLDSVTKSPIYSHFSETVTGLPIIRAFEHQQRFLAWNEKQIDINQKCVFSWITSNRWLAIRLELVGNLVVFCSALLLVIYRKTLTGDVVGFVLSNALNITQTLNWLVRMTSEAETNIVAVERISEYINVENEAPWVTDKRPPADWPRHGEIQFNNYQVRYRPELDLVLKGITCNIKSGEKVGVVGRTGAGKSSLTNCLFRILESAGGQIIIDGIDVASIGLHDLRERLTIIPQDPILFSGSLRMNLDPFNKYSDEEVWRALELAHLRSFVSGLQLGLLSEVTEGGDNLSIGQRQLLCLGRAVLRKSKILVLDEATAAVDLETDSLIQTTIRKEFSQCTVITIAHRLHTIMDSDKIMVLDNGKIVEYGSPEELLSNRGSFYLMAKEAGIENVNHTEL
In the case of B1, the figures for the Km in data set [3] and in data set [4] were 296 µM and 10.7 µM, respectively.

What is called Ki is a dissociation constant, usually derived from enzyme kinetics or from competition with a known ligand. Low values mean higher affinity, high ones lower affinity. What is called Km is the substrate concentration at which the rate is half of its maximum.
